Our source for the IC50 values is US8748421B2, “Triazine compounds as P13 kinase and MTOR inhibitors” (Wyeth LLC, priority 2009, dated 2014).

pIC50: −log10 of the molar value.

The target in one experiment is PI3K-alpha (Homo sapiens, UniProt P42336). As to the kind of experiment: PI3K-alpha fluorescence polarization assay. The note with it: read-out: IC50 PI3Kα.
A further experiment addresses PI3K-gamma (Homo sapiens, UniProt P48736). As to the kind of experiment: PI3K-gamma fluorescence polarization assay. The conditions noted are these: read-out: IC50 PI3Kγ.

Sequence of PI3K-alpha (P42336 whole entry, species assumed): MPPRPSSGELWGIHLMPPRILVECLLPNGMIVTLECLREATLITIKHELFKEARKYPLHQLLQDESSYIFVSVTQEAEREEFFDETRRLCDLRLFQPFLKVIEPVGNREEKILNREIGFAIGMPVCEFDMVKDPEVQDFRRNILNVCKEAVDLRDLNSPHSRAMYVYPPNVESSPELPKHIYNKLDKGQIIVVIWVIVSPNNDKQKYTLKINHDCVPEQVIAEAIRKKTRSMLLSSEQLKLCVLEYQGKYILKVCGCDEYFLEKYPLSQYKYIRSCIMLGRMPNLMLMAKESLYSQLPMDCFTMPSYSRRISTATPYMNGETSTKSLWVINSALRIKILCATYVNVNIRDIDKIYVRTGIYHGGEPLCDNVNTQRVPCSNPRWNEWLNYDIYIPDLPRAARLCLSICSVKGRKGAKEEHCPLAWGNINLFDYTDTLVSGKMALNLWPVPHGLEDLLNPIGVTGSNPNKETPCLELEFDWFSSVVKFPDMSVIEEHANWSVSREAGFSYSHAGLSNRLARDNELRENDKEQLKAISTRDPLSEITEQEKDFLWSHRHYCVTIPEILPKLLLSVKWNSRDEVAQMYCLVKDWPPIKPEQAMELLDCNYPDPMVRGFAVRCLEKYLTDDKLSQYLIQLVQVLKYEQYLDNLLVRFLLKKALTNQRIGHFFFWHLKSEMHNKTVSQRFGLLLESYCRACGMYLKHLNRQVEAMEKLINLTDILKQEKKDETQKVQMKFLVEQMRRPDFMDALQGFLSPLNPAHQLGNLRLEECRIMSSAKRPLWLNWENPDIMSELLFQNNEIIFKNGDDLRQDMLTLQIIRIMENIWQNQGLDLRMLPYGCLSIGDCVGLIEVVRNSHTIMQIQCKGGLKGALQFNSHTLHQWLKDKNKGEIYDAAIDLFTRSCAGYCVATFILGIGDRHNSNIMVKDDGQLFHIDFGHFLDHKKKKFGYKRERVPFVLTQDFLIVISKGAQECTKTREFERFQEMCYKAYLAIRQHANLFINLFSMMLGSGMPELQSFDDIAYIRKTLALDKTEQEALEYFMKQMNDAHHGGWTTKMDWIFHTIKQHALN
Sequence of PI3K-alpha (P27986 whole entry partner, species assumed): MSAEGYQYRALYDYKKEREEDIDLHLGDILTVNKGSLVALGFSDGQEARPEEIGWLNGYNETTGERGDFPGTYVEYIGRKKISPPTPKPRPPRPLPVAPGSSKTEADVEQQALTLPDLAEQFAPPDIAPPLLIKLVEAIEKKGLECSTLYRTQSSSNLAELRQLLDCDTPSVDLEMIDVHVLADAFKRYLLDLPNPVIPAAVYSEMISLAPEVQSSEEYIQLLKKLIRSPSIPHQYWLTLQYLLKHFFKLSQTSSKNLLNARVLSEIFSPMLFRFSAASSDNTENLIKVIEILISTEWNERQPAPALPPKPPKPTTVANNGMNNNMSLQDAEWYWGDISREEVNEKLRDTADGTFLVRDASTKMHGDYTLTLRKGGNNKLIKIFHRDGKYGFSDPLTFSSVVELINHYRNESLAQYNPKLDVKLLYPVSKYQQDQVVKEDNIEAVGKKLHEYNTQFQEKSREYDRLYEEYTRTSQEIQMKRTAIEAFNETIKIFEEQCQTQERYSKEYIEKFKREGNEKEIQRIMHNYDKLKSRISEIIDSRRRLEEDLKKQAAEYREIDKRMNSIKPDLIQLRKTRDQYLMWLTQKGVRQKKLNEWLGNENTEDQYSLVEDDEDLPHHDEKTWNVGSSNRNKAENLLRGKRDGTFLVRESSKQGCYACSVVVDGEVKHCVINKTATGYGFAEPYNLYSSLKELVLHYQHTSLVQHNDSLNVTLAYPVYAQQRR
Sequence of PI3K-gamma (P48736 whole entry, species assumed): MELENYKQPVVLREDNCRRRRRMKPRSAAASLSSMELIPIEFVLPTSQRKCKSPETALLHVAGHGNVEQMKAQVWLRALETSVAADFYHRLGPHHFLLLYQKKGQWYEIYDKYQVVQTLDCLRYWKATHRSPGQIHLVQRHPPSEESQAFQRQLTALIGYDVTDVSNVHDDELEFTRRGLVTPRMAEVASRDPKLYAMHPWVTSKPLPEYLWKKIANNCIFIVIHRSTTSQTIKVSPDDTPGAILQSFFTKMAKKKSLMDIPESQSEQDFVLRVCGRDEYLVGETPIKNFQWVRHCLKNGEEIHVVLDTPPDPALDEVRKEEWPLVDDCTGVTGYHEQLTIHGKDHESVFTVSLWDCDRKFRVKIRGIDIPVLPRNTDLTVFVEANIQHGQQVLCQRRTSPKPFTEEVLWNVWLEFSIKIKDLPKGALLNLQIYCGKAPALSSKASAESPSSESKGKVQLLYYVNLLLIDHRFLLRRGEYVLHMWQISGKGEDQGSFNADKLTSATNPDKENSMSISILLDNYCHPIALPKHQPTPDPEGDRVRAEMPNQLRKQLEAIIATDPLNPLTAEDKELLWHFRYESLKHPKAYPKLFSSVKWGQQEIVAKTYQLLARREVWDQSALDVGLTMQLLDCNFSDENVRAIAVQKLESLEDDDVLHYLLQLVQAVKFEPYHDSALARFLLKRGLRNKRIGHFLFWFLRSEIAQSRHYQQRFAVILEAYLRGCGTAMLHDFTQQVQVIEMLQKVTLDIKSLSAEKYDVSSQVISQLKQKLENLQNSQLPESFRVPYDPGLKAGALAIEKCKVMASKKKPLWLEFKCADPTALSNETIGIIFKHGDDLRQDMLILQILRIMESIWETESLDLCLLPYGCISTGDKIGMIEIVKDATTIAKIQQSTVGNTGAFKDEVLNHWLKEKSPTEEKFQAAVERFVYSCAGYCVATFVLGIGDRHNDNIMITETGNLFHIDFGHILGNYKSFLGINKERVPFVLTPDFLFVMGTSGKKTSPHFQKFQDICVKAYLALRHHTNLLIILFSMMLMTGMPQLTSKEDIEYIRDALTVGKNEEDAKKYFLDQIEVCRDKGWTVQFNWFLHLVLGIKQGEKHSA

In general, pIC50 refers to the negative decadic logarithm of the IC50, by convention in mol/L. For the compound “1-[4-(4,6-dimorpholin-4-yl-1,3,5-triazin-2-yl)phenyl]-3-[3-(1-hydroxyethyl)phenyl]urea [Example 88]”, the negative-log IC50 (pIC50) at PI3K-alpha was 8.10; on PI3K-gamma, 7.13.

On to `COc1ccc(NC(=O)Nc2ccc(-c3nc(N4CCOCC4)nc(N4CCOCC4)n3)cc2)c(OC)c1` [Example 7, 1-(2,4-dimethoxyphenyl)-3-[4-(4,6-dimorpholin-4-yl-1,3,5-triazin-2-yl)phenyl]-urea], for which the negative logarithm of the IC50 (pIC50) on PI3K-gamma was under 4.00. Same read-out and setting: under `Cc1ccc(NC(=O)Nc2ccc(-c3nc(NC4CN(C(=O)OC(C)(C)C)C4)nc(N4CCOCC4)n3)cc2)cc1` [Example 16, tert-butyl 3-{[4-(4-{[(4-methylphenyl)carbamoyl]amino}phenyl)-6-morpholin-4-yl-1,3,5-triazin-2-yl]amino}azetidine-1-carboxylate] stands under 4.00.

For the compound `O=C(Nc1ccc(-c2nc(N3CCOCC3)nc(N3CCOCC3)n2)cc1)Nc1ccc(C(O)(C(F)(F)F)C(F)(F)F)cc1` [Example 86, 1-[4-(4,6-dimorpholin-4-yl-1,3,5-triazin-2-yl)phenyl]-3-{4-[2,2,2-trifluoro-1-hydroxy-1-(trifluoromethyl)ethyl]phenyl}urea], the negative logarithm of the IC50 (pIC50) at PI3K-alpha was 6.91; on PI3K-gamma, 6.35.

`CN1CCN(c2ccc(NC(=O)Nc3ccc(-c4nc(-c5ccc(NC(=O)NC6CC6)cc5)nc(N5CC6CCC(C5)O6)n4)cc3)cc2)CC1` [Example 146, 1-cyclopropyl-3-(4-{4-[4-({[4-(4-methylpiperazin-1-yl)phenyl]carbamoyl}amino)phenyl]-6-(8-oxa-3-azabicyclo[3.2.1]oct-3-yl)-1,3,5-triazin-2-yl}phenyl)urea]: the pIC50 on PI3K-gamma was under 4.00.

`CCN(CC)CCOC(=O)c1ccc(NC(=O)Nc2ccc(-c3nc(N4CCOCC4)nc(N4C5CCC4COC5)n3)cc2)cc1` [Example 675, 2-(diethylamino)ethyl 4-[({4-[4-morpholin-4-yl-6-(3-oxa-8-azabicyclo[3.2.1]oct-8-yl)-1,3,5-triazin-2-yl]phenyl}carbamoyl)amino]benzoate]: the pIC50 at PI3K-alpha was 7.68; on PI3K-gamma, 6.87. As for `CN1CCN(C(=O)c2ccc(NC(=O)Nc3ccc(-c4nc(C5CCOCC5)nc(N5CCOCC5)n4)cc3)cc2)CC1` [Example 830, 1-{4-[(4-methylpiperazin-1-yl)carbonyl]phenyl}-3-{4-[4-morpholin-4-yl-6-(tetrahydro-2H-pyran-4-yl)-1,3,5-triazin-2-yl]phenyl}urea], the pIC50 at PI3K-alpha is 8.67. The same measure, in the same setting: under `CN(C)[C@@H]1CCN(C(=O)c2ccc(NC(=O)Nc3ccc(-c4nc(N5CCOCC5)nc(N5CCOCC5)n4)cc3)cc2)C1` [Example 831, 1-(4-{[(3R)-3-(dimethylamino)pyrrolidin-1-yl]carbonyl}phenyl)-3-[4-(4,6-dimorpholin-4-yl-1,3,5-triazin-2-yl)phenyl]urea] stands 9.02. `CC(C)N1CCN(C(=O)c2ccc(NC(=O)Nc3ccc(-c4nc(C5CCOCC5)nc(N5CCOCC5)n4)cc3)cc2)CC1` [Example 833, 1-(4-{[4-(1-methylethyl)piperazin-1-yl]carbonyl}phenyl)-3-{4-[4-morpholin-4-yl-6-(tetrahydro-2H-pyran-4-yl)-1,3,5-triazin-2-yl]phenyl}urea]: the negative logarithm of the IC50 (pIC50) was 8.59 at PI3K-alpha and 8.08 at PI3K-gamma. With `CN(C)CCN(C)C(=O)c1ccc(NC(=O)Nc2ccc(-c3nc(C4CCOCC4)nc(N4CCOCC4)n3)cc2)cc1` [Example 834, N-[2-(dimethylamino)ethyl]-N-methyl-4-[({4-[4-morpholin-4-yl-6-(tetrahydro-2H-pyran-4-yl)-1,3,5-triazin-2-yl]phenyl}carbamoyl)amino]benzamide], the pIC50 on PI3K-alpha is 9.12; at PI3K-gamma, 8.00. The matching figures for `O=C(Nc1ccncc1)Nc1ccc(-c2nc(OC3CNC3)nc(N3CCOCC3)n2)cc1` [Example 835, 1-{4-[4-(azetidin-3-yloxy)-6-morpholin-4-yl-1,3,5-triazin-2-yl]phenyl}-3-pyridin-4-ylurea]: 8.38 and 7.73. Turning to `CC(C)NC(=O)N1CC(Oc2nc(-c3ccc(NC(=O)Nc4ccncc4)cc3)nc(N3CCOCC3)n2)C1` [Example 836, N-(1-methylethyl)-3-[(4-morpholin-4-yl-6-{4-[(pyridin-4-ylcarbamoyl)amino]phenyl}-1,3,5-triazin-2-yl)oxy]azetidine-1-carboxamide], the pIC50 was 8.30 on PI3K-alpha and 7.76 on PI3K-gamma. In the case of `CC(=O)NC1CCN(C(=O)c2ccc(NC(=O)Nc3ccc(-c4nc(N5CCOC[C@@H]5C)nc(N5CCOC[C@@H]5C)n4)cc3)cc2)CC1` [Example 837, N-{1-[(4-{[(4-{4,6-bis[(3S)-3-methylmorpholin-4-yl]-1,3,5-triazin-2-yl}phenyl)carbamoyl]amino}phenyl)carbonyl]piperidin-4-yl}acetamide], the negative-log IC50 (pIC50) is 7.92 on PI3K-alpha and 7.12 on PI3K-gamma. The matching figures for `CC(C)N1CCCN(C(=O)c2ccc(NC(=O)Nc3ccc(-c4nc(N5CCOC[C@@H]5C)nc(N5CCOC[C@@H]5C)n4)cc3)cc2)CC1` [Example 838, 1-(4-{4,6-bis[(3S)-3-methylmorpholin-4-yl]-1,3,5-triazin-2-yl}phenyl)-3-(4-{[4-(1-methylethyl)-1,4-diazepan-1-yl]carbonyl}phenyl)urea]: 8.31 and 7.61. In the case of `C[C@H]1COCCN1c1nc(-c2ccc(NC(=O)Nc3ccc(C(=O)N4C5CCC4COC5)cc3)cc2)nc(N2CCOC[C@@H]2C)n1` [Example 839, 1-(4-{4,6-bis[(3S)-3-methylmorpholin-4-yl]-1,3,5-triazin-2-yl}phenyl)-3-[4-(3-oxa-8-azabicyclo[3.2.1]oct-8-ylcarbonyl)phenyl]urea], the pIC50 on PI3K-alpha is 8.18; on PI3K-gamma, 7.54. Take `C[C@H]1COCCN1c1nc(-c2ccc(NC(=O)Nc3ccc(C(=O)N4CCC(C#N)CC4)cc3)cc2)nc(N2CCOC[C@@H]2C)n1` [Example 840, 1-(4-{4,6-bis[(3S)-3-methylmorpholin-4-yl]-1,3,5-triazin-2-yl}phenyl)-3-{4-[(4-cyanopiperidin-1-yl)carbonyl]phenyl}urea]: the figures for the pIC50 on PI3K-alpha and on PI3K-gamma were 8.29 and 7.82, respectively. Turning to `C[C@H]1COCCN1c1nc(-c2ccc(NC(=O)Nc3ccc(C(=O)N4CC[C@H](N(C)C)C4)cc3)cc2)nc(N2CCOC[C@@H]2C)n1` [Example 841, 1-(4-{4,6-bis[(3S)-3-methylmorpholin-4-yl]-1,3,5-triazin-2-yl}phenyl)-3-(4-{[(3S)-3-(dimethylamino)pyrrolidin-1-yl]carbonyl}phenyl)urea], the pIC50 at PI3K-gamma was 6.97.

For the compound `C[C@H]1COCCN1c1nc(-c2ccc(NC(=O)Nc3ccc(C(=O)N4CC[C@@H](N(C)C)C4)cc3)cc2)nc(N2CCOC[C@@H]2C)n1` [Example 842, 1-(4-{4,6-bis[(3S)-3-methylmorpholin-4-yl]-1,3,5-triazin-2-yl}phenyl)-3-(4-{[(3R)-3-(dimethylamino)pyrrolidin-1-yl]carbonyl}phenyl)urea], the results for the pIC50 on PI3K-alpha and at PI3K-gamma were 8.45 and 7.26, respectively. For `CC(C)N1CCCN(c2nc(-c3ccc(NC(=O)Nc4ccc(C(=O)N5CC[C@H](N(C)C)C5)cc4)cc3)nc(N3CCOCC3)n2)CC1` [Example 843, 1-(4-{[(3S)-3-(dimethylamino)pyrrolidin-1-yl]carbonyl}phenyl)-3-(4-{4-(morpholin-4-yl)-6-[4-(propan-2-yl)-1,4-diazepan-1-yl]-1,3,5-triazin-2-yl}phenyl)urea] the same measures were 7.55 and 6.54. For `CC(C)N1CCCN(c2nc(-c3ccc(NC(=O)Nc4ccc(C(=O)N5CC[C@@H](N(C)C)C5)cc4)cc3)nc(N3CCOCC3)n2)CC1` [Example 844, 1-(4-{[(3R)-3-(dimethylamino)pyrrolidin-1-yl]carbonyl}phenyl)-3-(4-{4-(morpholin-4-yl)-6-[4-(propan-2-yl)-1,4-diazepan-1-yl]-1,3,5-triazin-2-yl}phenyl)urea] the same measures were 7.68 and 6.62. The matching figures for `CC1CNCCN1C(=O)c1ccc(NC(=O)Nc2ccc(-c3nc(N4CCOCC4)nc(N4CCOCC4)n3)cc2)cc1` (centres unmarked) [Example 845, 1-{4-[4,6-di(morpholin-4-yl)-1,3,5-triazin-2-yl]phenyl}-3-{4-[(2-methylpiperazin-1-yl)carbonyl]phenyl}urea]: 9.60 and 8.56. As to `CC(C)N1CCCN(c2nc(-c3ccc(NC(=O)Nc4ccc(C(=O)N5CCNCC5)cc4)cc3)nc(N3CCOCC3)n2)CC1` [Example 846, 1-(4-{4-(morpholin-4-yl)-6-[4-(propan-2-yl)-1,4-diazepan-1-yl]-1,3,5-triazin-2-yl}phenyl)-3-[4-(piperazin-1-ylcarbonyl)phenyl]urea], the pIC50 on PI3K-alpha is 8.46; on PI3K-gamma, 7.65.

Consider `CC(C)N1CCCN(c2nc(-c3ccc(NC(=O)Nc4ccc(C(=O)N5CC[C@@H](N(C)C)C5)cc4)cc3)nc(N3CCOCC3)n2)CC1` [Example 847, 1-(4-{[(3R)-3-(dimethylamino)pyrrolidin-1-yl]carbonyl}phenyl)-3-(4-{4-(morpholin-4-yl)-6-[4-(propan-2-yl)-1,4-diazepan-1-yl]-1,3,5-triazin-2-yl}phenyl)urea], for which the pIC50 at PI3K-alpha was 7.98; at PI3K-gamma, 7.06. For `CN1CCN(C(=O)c2ccc(NC(=O)Nc3ccc(-c4nc(N5CCOCC5)nc(N5CCOCC5)n4)cc3)cc2)CC1(C)C` [Example 848, 1-{4-[4,6-di(morpholin-4-yl)-1,3,5-triazin-2-yl]phenyl}-3-{4-[(3,3,4-trimethylpiperazin-1-yl)carbonyl]phenyl}urea] the same measures were 8.98 and 8.22. The matching figures for `C[C@@H]1CN(C(=O)c2ccc(NC(=O)Nc3ccc(-c4nc(N5CCOCC5)nc(N5CCOCC5)n4)cc3)cc2)CCN1` [Example 849, 1-{4-[4,6-di(morpholin-4-yl)-1,3,5-triazin-2-yl]phenyl}-3-(4-{[(3R)-3-methylpiperazin-1-yl]carbonyl}phenyl)urea]: 9.52 and 8.50.
